Earlier results, collected in patent US20100055044A1, “Ruthenium compounds and compositions” (priority 2008, published 2010).
Where two headings read alike, the source gives them in different places.

Tested on: Alveolar adenocarcinoma, breast adenocarcinoma, uterine carcinosarcoma, and endometrial carcinoma cells
Details: 8 days

In the case of O=[O+][O-] [ozone], the cell growth inhibition (0.3 ppm ozone in air) is given as 40%, the cell growth inhibition (0.5 ppm ozone in air) is given as 60% and the cell growth inhibition (0.8 ppm ozone in air, cancerous cells) is given as 90%.
